Assay results taken from patent US20230302159A1, “COMPOUNDS AND COMPOSITIONS FOR TUMOR DETECTION AND SURGICAL GUIDANCE” (Cornell University, priority 2020, published 2023).
Values joined by “and” are separate entries in the source; they are usually repeats but may differ in a detail not shown here. Equal values may be shown once. “Also recorded” adds a separate entry of the source.

What was measured:
[1] = Relative quantum yield measurement against ICG standard; assay type: physicochemical; settings: at pH 4.0, PBS
Description: Spectroscopic analysis. Stock solutions (1 mM in DMSO) of CypH-11, CypH-1, and Cy7 were stored at a −30° C. freezer and used for the following experiments. For the pKa measurement, the respective compound was diluted in 20 mM phosphate-buffered solution (PBS, pH 2.0-11.0) to a final concentration of 2 μM. The fluorescence intensity (λex=725 nm and λcm=785 nm) was measured on a plate reader (Tecan Infinite M1000 Pro), and the fluorescence images were recorded with a fluorescence imaging system (Bruker In-vivo F Pro). For the quantum yield measurement, indocyanine green (ICG, Φ=1.2% in water) was used as the standard compound. The respective compound (0.4, 0.8, 1.2, 1.6, and 2.0 μM) in PBS solutions (pH=4.0 and pH=7.4) was measured using a Cary 60 UV-Vis spectrophotometer and Cary Eclipse fluorescence spectrophotometer (Agilent). The slope of fluorescence vs absorbance was compared with that of ICG to calculate the relative quantum yield.

OVASAHO cells = experiment: Cell viability, cell counting kit-8 (CCK-8); assay type: cell-based; settings: 2 μM for 1 hr, then 72 hrs in fresh medium
Description: Cell viability. The cell viability of CypH-11 and CypH-1 were evaluated using the cell counting kit-8 (CCK-8) from Dojindo (Rockville, MD). OVASAHO cells (5.0×10^3) were seeded on a 96-well plate and cultured for 24 hrs. Then the cells were treated with CypH-11 (2 μM) and CypH-1 (2 μM) for 1 hr. After replacing the medium with fresh cell culture medium, the cells were incubated for another 72 hrs. The cell viability was examined by treating them with CCK-8 solution for 3 hrs and reading the absorbance at 450 nm using a plate reader.

[2] = system: SKOV3/GFP-Luc subcutaneous tumors; experiment: In vivo fluorescence imaging of subcutaneous tumors by spraying, SKOV3/GFP-Luc model; design: species or system mice; settings: for signal to background ratio: 2 μM
Description: (§1) Tumor models of subcutaneous implants and peritoneal implants. All animal procedures were carried out in compliance with the approved animal protocols and guidelines of the Institutional Animal Care and Use Committee at Weil Cornell Medical College. Mice (female, SCID Hairless Outbred Mouse) were purchased from Charles River (Wilmington, MA). To establish the subcutaneous implants, a suspension of OVASAHO/RFP-Luc cells (5.0×10^6) or SKOV3/GFP-Luc cells (5.0×10^6) in 100 μL PBS was inoculated into each flank of the female nude mice on both sides. After two weeks, the tumor implants grew to around 5 mm in size and were used for the spray experiment. To establish the peritoneal implants, SKOV3/GFP-Luc cells (5.0×10^6) suspended in […] were injected into the abdominal cavities of the female nude mice. After two weeks, the tumor growth was examined with an in vivo bioluminescence imaging system followed by peritoneal injection of D-luciferin potassium solution (200 μL, 15 mg/mL) for 10 min. Generally, mice bearing multiple disseminated peritoneal implants of 5 mm size in diameter were used for the experiment.
In vivo fluorescence imaging of subcutaneous tumors. Two subcutaneous tumor models (OVASAHO/RFP-Luc and SKOV3/GFP-Luc) were used to compare the imaging capability of CypH-11, CypH-1, and Cy7. Mice bearing the subcutaneous implants were anesthetized in an induction chamber using 2% isoflurane, and anesthesia was maintained with 1.5-2.0% isoflurane via a nose cone. Sterile surgical tools were used to remove skin around the tumor. The mice images were captured using an IVIS SpectrumCT System from PerkinElmer (Waltham, MA). OVASAHO/RFP-Luc and SKOV3/GFP-Luc tumors were captured under an RFP channel (Excitation: 520-550 nm and Emission: 570-590 nm) and a GFP channel (Excitation: 450-480 nm and Emission: 510 530 nm), respectively. A Cy7 channel (Excitation: 730-760 nm and Emission: 790-810 nm) was applied to evaluate the fluorescence generated by CypH-11, CypH-1, and Cy7. After skin removal, the tumor area and the background fluorescence under the Cy7 channel were measured first. Solutions of CypH-11, CypH-1, and Cy7 (2 μM each) were sprayed on the surgical area, and the fluorescence of the Cy7 channel was measured continuously at each time point (1, 3, 5, 7, 10, and 15 min). Ten, five, and three OVASAHO tumors were used to evaluate CypH-11, CypH-1, and Cy7, respectively. Six SKOV3 tumors were used to evaluate CypH-11. To evaluate the tumor-to-normal tissue ratio, the whole tumor regions and the adjacent open-skin areas were drawn, and their fluorescence intensity was acquired by the IVIS software. Tumor-to-normal tissue ratio value was calculated as the average fluorescence intensity of the tumor divided by that of the normal area. Also, tumor-bearing mice were euthanized by carbon dioxide inhalation or a high dose of isoflurane (5%). The subcutaneous tumors and the adjacent muscles were then extracted, and CypH-11 (2 μM) was sprayed onto them. Images were subsequently captured under GFP/RFP/Cy7 channels.
(§2) Histology. To gain knowledge about the CypH-11 distribution in tumors after administration via spray and i.p. injection, the tumors were excised and analyzed. […] The slides were imaged first with a fluorescence microscope (EVOS, Thermofisher Scientific, Waltham, MA) and were subsequently stained with hematoxylin and eosin Y solution (H&E) to assess their histologic alterations under a light microscope.

[3] = system: SKOV3/GFP-Luc disseminated peritoneal tumors; experiment: In vivo fluorescence imaging of disseminated peritoneal tumors after IP administration; design: species or system mice
Description: as §1
In vivo fluorescence imaging of disseminated peritoneal tumors. […] The fluorescence images were captured for the whole cavity under both the GFP and Cy7 channels. […] Regions of interest (ROI, n=6, and average area=0.28±0.1 cm^2) within the tumor nodules and in the adjacent normal areas in the peritoneal cavity were drawn and calculated for tumor-to-normal tissue ratio.
as §2

Structure (SMILES) | quantum yield (Φ) [1] | cell viability (OVASAHO cells) | signal to background ratio ([2]; 1 min after spray) | signal to background ratio ([2]; 5 min after spray) | signal to background ratio ([2]; 10 min after spray) | NIR signal depth in tumor after spray ([2]; sprayed, 15 min, histology) | CypH-11 signal when sprayed ex vivo on excised 20-min old dead tissues ([2]; tumor and muscle excised, held 20 min, then sprayed) | tumor signal higher than the background of the peritoneum, liver, and intestine ([3]; 1 h post IP, 200 μL 2 μM in PBS) | size of smallest tumors detected ([3]; 1 h post IP, no washing) | NIR signal depth in tumor after IP injection ([3]; IP, within an hour, histology)
CC(C)N(C)c1ccc(OC2=C(/C=C/C3=[N+](C(C)C)c4ccccc4C3(C)C)CCC/C2=C\C=C2\N(C(C)C)c3ccccc3C2(C)C)cc1.[I-] [CypH-11] | 3.3% | 91.0±4.6% | 1.3 | 1.4 | 1.6 | 2-3 layers of cells | no NIR signal could be detected; also recorded: No CypH-11 signal in tumor or muscle was observed | 3- to 4 fold | 1 mm and < 1 mm | 6-7 layers of cells
CN(C)c1ccc(OC2=C(/C=C/C3=[N+](C)c4ccccc4C3(C)C)CCC/C2=C\C=C2\N(C)c3ccccc3C2(C)C)cc1.[Cl-] [CypH-1, reference compound] |  | 95.5±6.9% |  |  |  |  |  |  |  | 
